From patent US10718028B2, “Fluorescent probes for abasic site detection” (CASE WESTERN RESERVE UIVERSITY, priority 2015, dated 2020)

Experiments:
[1] = Absorption and emission spectra of AP site binding probes in ethanol; type: physicochemical
Method: NMR spectra were recorded on a Varian Mercury 300 MHz, a Varian Inova 400, and a Varian Inova 600 MHz spectrometer at room temperature, except where otherwise noted. Chemical shifts for 1H NMR were reported as 6, parts per million, and referenced to CHCl3 at 7.26 ppm or TMS at 0 ppm. Chemical shifts for ^13C NMR were reported as 6 and referenced to the center line of the CDCl3 triplet at 77.0 ppm or CH2Cl2 pentet at 54.0 ppm. Low resolution mass spectra were recorded on a ThermoScientific LCQ Advantage or a Finnigan LCQ Deca mass spectrometer. Fluorescence data were collected on a Varian Cary Eclipse fluorescence spectrophotometer in a quartz cuvette with a 1 cm pathlength or on a Tecan Infinite M200 scanner. Absorbance data were collected on a Varian Cary 50 Bio UV-Visible Spectrophotometer in a quartz cuvette with a 1 cm path length.
To characterize the fluorescent properties, the absorption and emission spectra were collected for all final compounds.

[2] = Aqueous solubility; type: physicochemical
[3] = test system: AP DNA; assay: SSB activity assay, dose-response of AP site binding probes; type: biochemical; settings: 5 pmol AP DNA, FIG. 1
Method: FIG. 1 illustrates SSB activity assay is used to compare the dose-response of AP site binding probes in 5 pmol of AP DNA. Mean and standard deviation of triplicate samples are shown for each concentration.
The single strand break (SSB) assay was proposed as a quick, facile tool to screen AP site binding probes. Therefore, the assay was performed on novel AP site binding probes described above and the commercially available AP site binding probe, F422. […] The reduced response of F422 and DansylMX may be due in part to the compounds being fairly electron rich near the aminooxy binding moiety. This could lead to a Coulombic repulsion with the DNA phosphate backbone.
SSB activity assays were performed on a 40-mer duplex DNA synthesized by IDT with the sequence:
SSB Activity Assay Control Reactions

[4] = test system: DLD1 cells; assay: AP site evaluation in FUDR treated DLD1 cells with Cy7MX; type: cell-based; settings: 72 h continuous FUDR exposure, UDG KD cells, DNA treated in vitro with UDG
Method: DLD1 cells (ATCC #CCL-221) were obtained from the laboratory of Sanford Markowitz at Case Western Reserve University. UDG directed shRNA clones and scrambled targeted control shRNA clones were purchased from Sigma-Aldrich. According to manufacturer's instructions from Lipofectamine 2000 (Invitrogen), HEK293 cells were transfected to produce lentiviral particles that were used to infect DLD1 cells. Forty-eight hours after transfection, DLD1 cells were diluted for passage and selected with puromycin. The UDG knockdown levels were verified by RT-PCR and Western blot analysis.
To allow for cell proliferation, the following approximate numbers of cells were plated for each time point given in parenthesis: 4 million (24 h), 1 million (48 h), and 0.3 million (72 h). Two mL of medium were removed from each plate and replaced with 2 mL of FUDR solution at a final concentration of 0, 10, 200, or 1000 nM in 10 mL. […]
Pure DNA pellets were dissolved in 200 μL 1×UDG buffer. […] DNA concentrations were measured and adjusted to a maximum of 300 μg/mL. Aliquots (125 μL) of the samples were added to a black, clear-bottom 96 well plate (Corning) and analyzed with 760 nm excitation and emission scan of 790-847 nm with a 3 nm step size. Integrated fluorescence intensities were adjusted to DNA concentration and normalized to the FUDR untreated KD+UDG sample.

[5] = in EtOH; cited from earlier work
[6] = in EtOH; cited from earlier work; remark: listed apart in the source
[7] = test system: AP sites in calf thymus DNA; assay: MX and Cy7MX genomic DNA blocking assay; type: binding; settings: DNA pretreated with large excess of MX (1000×)
Method: FIG. 10 illustrates fluorescence response and MX blocking of Cy7MX. Calf thymus DNA treated with heat and acid for increments of 15 min to give a linear relative number of AP sites. AP DNA was then pretreated with MX (50 mM, +MX) or NaCl (50 mM, −MX) followed by incubation with Cy7MX (0.05 mM). Fluorescence measures show a linear response to Cy7MX when not blocked by MX.
Calf thymus DNA was purchased from Sigma and was reconstituted overnight at 4° C. in either H2O or 500 mM MX (to eliminate basal AP sites) with gentle shaking (1.5 mL water or solution per 5 mg DNA). For samples reconstituted in MX solution, an ethanol precipitation was performed twice before heat and acid treatment (vide infra) then reconstituted in water. The DNA-water solution was aliquoted to 1.5 mL Eppendorf tubes (360 μL) and 10× Citrate buffer (1M NaCl, 100 μM monosodium phosphate, 100 μM monosodium citrate, pH 5.0) was added to a final concentration of 1×. For t=0 min samples, ice-cold 100% EtOH (1.0 mL) was added immediately and the Eppendorf tubes stored at −20° C. […]
To 80 μL aliquots of DNA was added either 10 μL of MX (500 mM, pH 7) or vehicle control (500 mM NaCl). […] Aliquots (125 μL) of the samples were added to a black, clear-bottom 96 well plate (Corning) and analyzed with 700 nm excitation and 790 nm emission. Fluorescence was adjusted to DNA concentration.

[8] = test system: AP sites in calf thymus DNA; assay: MX or ARP and Cy7MX genomic DNA competition assay; type: binding
Method: Calf thymus DNA was purchased from Sigma and was reconstituted overnight at 4° C. in either H2O or 500 mM MX (to eliminate basal AP sites) with gentle shaking (1.5 mL water or solution per 5 mg DNA). For samples reconstituted in MX solution, an ethanol precipitation was performed twice before heat and acid treatment (vide infra) then reconstituted in water. The DNA-water solution was aliquoted to 1.5 mL Eppendorf tubes (360 μL) and 10× Citrate buffer (1M NaCl, 100 μM monosodium phosphate, 100 μM monosodium citrate, pH 5.0) was added to a final concentration of 1×. For t=0 min samples, ice-cold 100% EtOH (1.0 mL) was added immediately and the Eppendorf tubes stored at −20° C. Other samples were placed in a 70° C. heating block for 15-90 minutes in 15-minute increments. Samples were removed from heat, precipitated in ice-cold 100% EtOH (1.0 mL), and then chilled at −20° C. for at least 20 minutes. Samples were centrifuged at 12,000×G for 10 min at 4° C. The supernatant was discarded. The process was repeated once beginning with the addition of EtOH (1.0 mL). The DNA pellet was dissolved in 700 μL H2O or TE buffer. Aliquots of 80 μL were put in 1.5 mL Eppendorf tubes. Any samples not used immediately were stored at −80° C.
Solutions of MX and Cy7MX were prepared in H2O varying [MX] from 0-1.9 M and maintaining at 25 μM. […] The ratios of MX:Cy7MX used in this study were: 0, 0.01, 0.1, 0.5, 1, 5, 10, 50, 100, 250, 500, 1000, 2500, 5000, 10000, 25000, 50000, and 75000. […] The following samples were prepared in triplicate: 20 μL of MX/Cy7MX solution was added to 80 μL aliquots of heat/acid treated DNA (t=45 min). Samples were incubated for 1 h at 37° C. in the dark. Ice-cold EtOH (1.0 mL) was added and the DNA was purified by EtOH precipitation three times as described in the heat/acid treatment of genomic DNA section. DNA was dissolved in 150 μL H2O. Aliquots (125 μL) of the samples were added to a black, clear-bottom 96 well plate (Corning) and analyzed with 750 nm excitation and 800 nm emission. Fluorescence was adjusted to DNA concentration.
As before (section 2.3.2) except solutions of ARP and Cy7MX were prepared in H2O varying [ARP] from 0-75 mM and maintaining at 1 μM. The ratios of ARP: Cy7MX used in this study were: 0, 0.1, 1, 10, 100, 500, 1000, 5000, 10000, 25000, 50000, and 75000.

| SMILES | Stokes shift [1] | λabs max [1] | λem max [1] | dose-response and overall efficacy in SSB assay [3] | further results |
| --- | --- | --- | --- | --- | --- |
| NOCCCOc1ccc2cc(-c3ccc(N)cc3)c(=O)oc2c1 [ACMX, 7-(3-(aminooxy)propoxy)-3-(4-aminophenyl)-2H-chromen-2-one] | 80 nm | 370 nm | 450 nm |  | aqueous solubility [2]: poor aqueous solubility |
| CCCN1/C(=C/C=C(/C=C/C2=[N+](CCC)c3ccccc3C2(C)C)c2ccc(C(=O)NCCCON)cn2)C(C)(C)c2ccccc21 [Cy5MX, 2-((1E,3Z)-3-(5-((3-(aminooxy)propyl)carbamoyl)pyridin-2-yl)-5-((E)-3,3-dimethyl-1-propylindolin-2-ylidene)penta-1,3-dien-1-yl)-3,3-dimethyl-1-propyl-3H-indol-1-ium 2,2,2-trifluoroacetate] | 20 nm | 640 nm | 660 nm | acceptable dose-response and overall efficacy |  |
| CN(C)c1cccc2c(S(=O)(=O)NOCCCON)cccc12 [DansylMX, N-(3-(aminooxy)propoxy)-5-(dimethylamino)naphthalene-1-sulfonamide] | 200 nm | 340 nm | 540 nm | unacceptable dose-response | overall reduction in SSB activity [3]: ca. 60% |
| O=c1[nH]c(=O)n([C@H]2C[C@H](O)[C@@H](CO)O2)cc1F [FUDR, 5-fluoro-20-deoxyuridine] |  |  |  |  | increase in Cy7MX fluorescence intensity (AP sites) [4]: ~9 fold |
| CC1(C)C(/C=C/C=C/C=C/C=C2\N(CCCCS(=O)(=O)O)c3ccc4ccccc4c3C2(C)C)=[N+](CCCCS(=O)(=O)[O-])c2ccc3ccccc3c21 [ICG, indocyanine green] |  |  |  |  | fluorescence quantum yield of the standard [5]: 0.132; fluorescence quantum yield Φ of the standard [6]: 0.132 |
| Cc1cc(=O)oc2cc(OCCCON)ccc12 [MCMX, 7-(3-(aminooxy)propoxy)-4-methyl-2H-chromen-2-one] | 50 nm | 325 nm | 375 nm | superior to the other probes assayed in dose-response and overall efficacy |  |
| CON [MX, methoxyamine] |  |  |  |  | Cy7MX fluorescent intensity after pretreatment (blocking) [7]: significantly reduced; ED50 of Cy7MX, excess of competitor ([8]; 1 h at 37° C., constant Cy7MX): 3000 × excess; ED50, molar ratio of probe to Cy7MX ([8]; calf thymus DNA heat/acid 45 min, FIG. 13): 3000 fold excess |
| NOCCCOc1ccc2cc(-c3ccc([N+](=O)[O-])cc3)c(=O)oc2c1 [NpCMX, 7-(3-(aminooxy)propoxy)-3-(4-nitrophenyl)-2H-chromen-2-one] | 185 nm | 365 nm | 550 nm | superior to the other probes assayed in dose-response and overall efficacy |  |
| NNC(=S)Nc1ccc(-c2c3ccc(=O)cc-3oc3cc(O)ccc23)c(C(=O)O)c1 [Probe F422, reference compound] |  |  |  | unacceptable dose-response | overall reduction in SSB activity [3]: ~90% |
